Laboratory results: US4820701A, “Penam derivatives” (Beecham Group p.l.c., priority 1987, dated 1989)
Values after ≈ are worked out from the molar mass of the structure shown. Counter-ions that a name gives are not always drawn.

Tests used:
Experiment in all cases: MIC by serial dilution in agar
Type in all cases: cell-based
[1] = system: E. coli JT 425; conditions: Escherichia coli, JT425; Iso-sensitest Agar, 10^4 colony forming units, overnight at 37° C
Description: (§1) Minimum Inhibitory concentration (MIC) values of compounds of the invention against E. coli JT425 and DC RTEM, K. Pneumoniae T767 and P. aeruginosa 10662 and K79961. were determined by serial dilution in Iso-sensitest Agar (from Oxoid Ltd., Basingstoke, England). The plates were inoculated with 10^4 colony forming units and incubated overnight at 37° C. The MIC values recorded in Table 1 were the lowest concentration of antibiotic to inhibit growth. Comparative data for Piperacillin which is the compound 6β-[D-2-[(4-ethyl-2,3-dioxopiperazin-1-yl)carbonylamino]-2-phenylacetamido]-penicillanic acid, sodium salt and for the compound 6α-formamido-6β-[D-2-[(4-ethyl-2,3-dioxopiperazin-1-yl)carbonylamino]-2-phenylacetamido]-penicillanic acid, sodium salt (Compound A) disclosed in U.K. GB Pat. No.-2107307B, are also given.

[2] = system: P. aeruginosa K79961; conditions: Pseudomonas aeruginosa, Iso-sensitest Agar, 10^4 colony forming units, overnight at 37° C
Description: as §1

[3] = system: K. pneumoniae T767; conditions: Klebsiella pneumoniae, Iso-sensitest Agar, 10^4 colony forming units, overnight at 37° C
Description: as §1

[4] = system: E. coli DC RTEM; conditions: Escherichia coli
Description: as §1

[5] = system: P. aeruginosa 10662; conditions: Pseudomonas aeruginosa, Iso-sensitest Agar, 10^4 colony forming units, overnight at 37° C
Description: as §1

Row | SMILES | MIC [1] | MIC [2] | MIC [3] | MIC [4] | MIC [5]
1 | CCN1CCN(C(=O)N[C@@H](C(=O)N[C@]2(NC=O)C(=O)N3[C@@H](C(=O)O)C(C)(C)S[C@@H]32)c2ccccc2)C(=O)C1=O [Compound A, 6α-formamido-6β-[D-2-[(4-ethyl-2,3-dioxopiperazin-1-yl)carbonylamino]-2-phenylacetamido]-penicillanic acid, sodium salt, reference compound] | 8 µg/mL | 2 µg/mL | 4 µg/mL | 4 µg/mL | 16 µg/mL
2 | CCN1CCN(C(=O)N[C@@H](C(=O)N[C@]2(NC=O)C(=O)N3[C@@H](C(=O)O)[C@](C)(COC(=O)c4ccc(OC(C)=O)c(OC(C)=O)c4)S[C@@H]32)c2ccccc2)C(=O)C1=O [Example 1] | 0.5 µg/mL (≈ 0.628 µM) | 0.06 µg/mL (≈ 0.0753 µM) | 0.12 µg/mL (≈ 0.151 µM) | 0.12 µg/mL (≈ 0.151 µM) | 0.25 µg/mL (≈ 0.314 µM)
3 | CCN1CCN(C(=O)N[C@@H](C(=O)N[C@]2(NC=O)C(=O)N3[C@@H](C(=O)O)[C@](C)(COC(=O)c4ccc(O)c(O)c4)S[C@@H]32)c2ccccc2)C(=O)C1=O [Example 2, Sodium 6β-[R,2-(4-ethyl-2,3-dioxopiperazin-1-yl)carbonylamino-2-phenylacetamido]-6α-formamido-2β-(3,4-dihydroxybenzoyloxy)methyl-2α-methylpenam-3-carboxylate] | 0.5 µg/mL | < 0.03 µg/mL | 0.12 µg/mL | < 0.03 µg/mL | 0.12 µg/mL
4 | CCN1CCN(C(=O)N[C@@H](C(=O)N[C@@H]2C(=O)N3[C@@H]2S[C@@](C)(COC(=O)c2ccc(OC(C)=O)c(OC(C)=O)c2)[C@@H]3C(=O)O)c2ccccc2)C(=O)C1=O [Example 3, Sodium 2β-(3,4-diacetoxybenzoyloxy)methyl-6β-[R,2-(4-ethyl-2,3-dioxopiperazin-1-yl)carbonylamino-2-phenylacetamido]-2α-methylpenam-3-carboxylate] | 1 µg/mL | < 0.03 µg/mL | 0.25 µg/mL | 4 µg/mL | < 0.03 µg/mL
5 | CCN1CCN(C(=O)N[C@@H](C(=O)N[C@@H]2C(=O)N3[C@@H]2SC(C)(C)[C@@H]3C(=O)O)c2ccccc2)C(=O)C1=O [Piperacillin, 6β-[D-2-[(4-ethyl-2,3-dioxopiperazin-1-yl)carbonylamino]-2-phenylacetamido]-penicillanic acid, sodium salt, reference compound] | 16 µg/mL | > 0.06 µg/mL | 2 µg/mL | > 128 µg/mL | 2 µg/mL
